Substitutions are numbered along the chain they refer to.
Key:
[1] = molecular target: T1, human corticosteroid binding globulin (CBG) variant glycosylated at positions 74 and 238 (Homo sapiens, UniProt P08185, N176Q/N31Q/N330Q/N369Q); experiment: Affinity for cortisol by Scatchard analysis, [3H]-cortisol with increasing unlabelled cortisol; conditions: concentrated CHO culture media
T1 construct: in order to isolate a full-length CBG cDNA; made in house; host or cells: CHO cells (CHO pro), measured in culture medium
T1 sequence (P08185 23-405 N31Q/N176Q/N330Q/N369Q): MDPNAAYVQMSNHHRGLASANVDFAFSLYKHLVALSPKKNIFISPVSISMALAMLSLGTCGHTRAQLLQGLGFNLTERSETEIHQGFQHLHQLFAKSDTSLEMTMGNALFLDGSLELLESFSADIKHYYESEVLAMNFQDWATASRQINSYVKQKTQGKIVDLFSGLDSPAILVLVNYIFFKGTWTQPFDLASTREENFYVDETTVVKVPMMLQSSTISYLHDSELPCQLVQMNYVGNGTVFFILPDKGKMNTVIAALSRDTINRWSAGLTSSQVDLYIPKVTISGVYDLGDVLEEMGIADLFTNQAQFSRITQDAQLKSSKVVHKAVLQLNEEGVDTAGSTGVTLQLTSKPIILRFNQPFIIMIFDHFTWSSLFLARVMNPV
Experimental: (§1) The steroid binding capacity of the CBG variants in the culture media was measured by saturation analysis using as a labelled ligand [^3 H]-cortisol (55.8 Ci/mmol) obtained from DuPont, and dextran-coated charcoal as a separation agent as described by Hammond et al. in Clin. Chim. Acta, 1983, 132:101.
(§2) Initially, samples of culture media were added to tubes of PBS containing [^3 H]-cortisol. The mixture in the tubes was vortex mixed and incubated at room temperature for 1 h followed by a further incubation in an ice-water for 15 min. Dextran-coated charcoal (DCC) suspension at 0° C. (1.25 g Norit "A"(Amend Drug and Chemical Co.) and 0.125 g Dextran T-70 (AB Pharmacia) in 0.01 mol/l phosphate-buffered saline containing 0.1% gelatin, pH7) was added to the tubes to bind excess labelled cortisol. The tubes were incubated for […] 0° C. After centrifugation at 3000 X g for 5 min at 4° C. to sediment the DCC, the supernatants were decanted into scintillation counting vials containing 4 ml Aqueous Counting Scintillant (Amersham), which were capped, shaken and counted for 10 min or until 10,000 cpm had accumulated. The binding capacity of the CBG variants was calculated in nmol/L after correction for dilution and the dissociation of bound complexes during the DCC treatment (12% for CBG).
(§3) The affinity of the CBG variants for cortisol was measured using the Scatchard analysis.

[2] = molecular target: T2, human corticosteroid binding globulin (CBG) variant glycosylated solely at position 238 (sites 9, 74, 154, 308, 347 disrupted, Asn to Gln) (Homo sapiens, UniProt P08185, N176Q/N31Q/N330Q/N369Q/N96Q); experiment: as above; conditions: concentrated CHO culture media, read-out: K8 (affinity for cortisol) (converted)
T2 construct: made in house; host or cells: CHO cells (CHO pro), measured in culture medium
T2 sequence (P08185 23-405 N31Q/N96Q/N176Q/N330Q/N369Q): T1 sequence (P08185 23-405 N31Q/N176Q/N330Q/N369Q) with N74Q
Experimental: as §1, §2, §3

[3] = molecular target: T3, human corticosteroid binding globulin (CBG), native (Homo sapiens, UniProt P08185); conditions: 4° C., physiological pH; read-out: binding affinity of the natural cortisol ligand for CBG; cited from earlier work
T3 sequence (P08185 23-405): T1 sequence (P08185 23-405 N31Q/N176Q/N330Q/N369Q) with Q9N, Q154N, Q308N, Q347N

[4] = molecular target: T4, human corticosteroid binding globulin (CBG) variant glycosylated solely at position 74 (Homo sapiens, UniProt P08185, N176Q/N260Q/N31Q/N330Q/N369Q); experiment: Steroid binding of CBG variant with [3H]-cortisol; conditions: CHO culture media
T4 construct: made in house; host or cells: CHO cells (CHO pro), measured in culture medium
T4 sequence (P08185 23-405 N31Q/N176Q/N260Q/N330Q/N369Q): T1 sequence (P08185 23-405 N31Q/N176Q/N330Q/N369Q) with N238Q
Experimental: Chim. Acta, 1983, 132:101. Initially, samples of culture media were added to tubes of PBS containing [^3 H]-cortisol. The mixture in the tubes was vortex mixed and incubated at room temperature for 1 h followed by a further incubation in an ice-water for 15 min. Dextran-coated charcoal (DCC) suspension at 0° C. […] The tubes were incubated for […] 0° C. […] The binding capacity of the CBG variants was calculated in nmol/L after correction for dilution and the dissociation of bound complexes during the DCC treatment (12% for CBG). The affinity of the CBG variants for cortisol was measured using the Scatchard analysis. Prior to conducting the affinity measurement, the culture media was concentrated using *Centricon microconcentrators (Amicon).

[5] = molecular target: T5, human corticosteroid binding globulin (CBG) variant Asn238 to Gln (glycosylation site 238 disrupted) (Homo sapiens, UniProt P08185, N260Q); experiment: Steroid binding capacity by saturation analysis with [3H]-cortisol, dextran-coated charcoal; conditions: CHO culture media
T5 construct: made in house; host or cells: CHO cells (CHO pro), measured in culture medium
T5 sequence (P08185 23-405 N260Q): T1 sequence (P08185 23-405 N31Q/N176Q/N330Q/N369Q) with Q9N, Q154N, N238Q, Q308N, Q347N
Experimental: as §1, §2

[6] = molecular target: T6, human corticosteroid binding globulin (CBG) variant Thr240 to Ala (glycosylation site 238 disrupted) (Homo sapiens, UniProt P08185, T262A); experiment: as above; conditions: CHO culture media
T6 construct: in order to isolate a full-length CBG cDNA; made in house; host or cells: CHO cells (CHO pro), measured in culture medium
T6 sequence (P08185 23-405 T262A): T1 sequence (P08185 23-405 N31Q/N176Q/N330Q/N369Q) with Q9N, Q154N, T240A, Q308N, Q347N
Experimental: as §1, §2

SMILES: C[C@]12CCC(=O)C=C1CC[C@@H]1[C@@H]2[C@@H](O)C[C@@]2(C)[C@H]1CC[C@]2(O)C(=O)CO [cortisol]
- K4 (steroid-binding affinity) [1]: 1.9e+08 M⁻¹
- Kd [2]: 9.09 nM
- Kd [3]: ~0.7 nM
- steroid-binding activity [4]: no steroid-binding activity
- steroid-binding activity [5]: complete loss of steroid-binding activity
- steroid-binding activity [6]: complete loss of steroid-binding activity

From patent US5595969A, “Variants of human corticosteroid binding globulin” (Allelix Biopharmaceutical Inc., priority 1995, dated 1997)
